Reference: ChEMBL document CHEMBL3425418 (Bioorg Med Chem Lett, 2015)

What was measured:
Ephrin type-B receptor 2 = molecular target: T1, Ephrin type-B receptor 2 (Homo sapiens, UniProt P29323); test: Inhibition of recombinant EphB2 (unknown origin) by cell-free assay
T1 sequence (P29323 whole entry): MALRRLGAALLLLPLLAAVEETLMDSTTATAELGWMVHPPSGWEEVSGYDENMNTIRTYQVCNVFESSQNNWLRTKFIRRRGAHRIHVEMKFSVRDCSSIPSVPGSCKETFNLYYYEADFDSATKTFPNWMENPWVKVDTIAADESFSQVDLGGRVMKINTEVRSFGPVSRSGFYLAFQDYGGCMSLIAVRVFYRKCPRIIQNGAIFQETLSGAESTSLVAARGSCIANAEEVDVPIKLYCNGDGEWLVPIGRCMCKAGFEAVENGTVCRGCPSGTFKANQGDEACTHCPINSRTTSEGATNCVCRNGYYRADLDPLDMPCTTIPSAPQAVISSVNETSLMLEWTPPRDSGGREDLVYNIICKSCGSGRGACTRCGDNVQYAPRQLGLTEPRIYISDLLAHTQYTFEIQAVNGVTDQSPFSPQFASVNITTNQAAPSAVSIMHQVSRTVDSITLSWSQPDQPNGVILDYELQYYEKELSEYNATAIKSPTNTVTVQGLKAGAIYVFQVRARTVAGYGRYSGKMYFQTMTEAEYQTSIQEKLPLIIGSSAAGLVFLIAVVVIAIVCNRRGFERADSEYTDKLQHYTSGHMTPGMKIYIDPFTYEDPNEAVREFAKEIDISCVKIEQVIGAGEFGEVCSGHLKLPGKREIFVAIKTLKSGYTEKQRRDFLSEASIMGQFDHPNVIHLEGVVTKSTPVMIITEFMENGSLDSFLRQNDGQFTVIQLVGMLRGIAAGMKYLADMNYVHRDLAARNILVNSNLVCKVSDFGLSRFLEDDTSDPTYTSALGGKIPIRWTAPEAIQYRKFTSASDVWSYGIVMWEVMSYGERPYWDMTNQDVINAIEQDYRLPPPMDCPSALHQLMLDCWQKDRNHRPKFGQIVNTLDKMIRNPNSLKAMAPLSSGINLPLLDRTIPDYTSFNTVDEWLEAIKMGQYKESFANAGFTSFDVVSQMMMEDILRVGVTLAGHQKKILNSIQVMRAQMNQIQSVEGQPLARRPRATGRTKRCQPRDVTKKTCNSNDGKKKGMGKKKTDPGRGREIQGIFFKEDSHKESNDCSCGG

[1] = Tmax in Sprague-Dawley rat at 2.5 mg/kg, po; assay type: ADME, organism-based; design: dose 2.5 mg/kg, route oral; conditions: in vivo
[2] = Half life in Sprague-Dawley rat at 2.5 mg/kg, po; assay type: ADME, organism-based; design: dose 2.5 mg/kg, route oral; conditions: in vivo
[3] = Cmax in Sprague-Dawley rat at 2.5 mg/kg, po; assay type: ADME, organism-based; design: dose 2.5 mg/kg, route oral; conditions: in vivo
[4] = AUC (0 to time) in Sprague-Dawley rat at 2.5 mg/kg, po; assay type: ADME, organism-based; design: dose 2.5 mg/kg, route oral; conditions: plasma
[5] = AUC (0 to infinity) in Sprague-Dawley rat at 2.5 mg/kg, po; assay type: ADME, organism-based; design: time infinity, dose 2.5 mg/kg, route oral; conditions: plasma
[6] = Mean residence time in Sprague-Dawley rat at 2.5 mg/kg, po; assay type: ADME, organism-based; design: dose 2.5 mg/kg, route oral; conditions: in vivo
Homo sapiens [7] = species: Homo sapiens; test: Toxicity in metastatic renal cell carcinoma patient assessed as hypertension; assay type: organism-based
Homo sapiens [8] = species: Homo sapiens; test: Toxicity in metastatic renal cell carcinoma patient assessed as dysphonia; assay type: organism-based

Compound | IC50 (Ephrin type-B receptor 2) [nM] | Tmax [1] [h] | half-life [2] [h] | Cmax [3] [ng/mL] | AUC [4] [ng·h/mL] | AUC(0-inf) [5] [ng·h/mL] | MRT [6] [h] | Activity (Homo sapiens [7]) [%] | Activity (Homo sapiens [8]) [%]
[2H]C([2H])([2H])Oc1cc2nccc(Oc3ccc(NC(=O)Nc4cc(C)on4)c(Cl)c3)c2cc1OC([2H])([2H])[2H] | 26.8 | 5 | 11.1 | 3980 | 69700 | 73900 | 15.8 | – | –
COc1cc2nccc(Oc3ccc(NC(=O)Nc4cc(C)on4)c(Cl)c3)c2cc1OC [TIVOZANIB] | 17.5 | 4.8 | 9.35 | 3060 | 47500 | 49100 | 13.4 | 44 | 21
CNC(=O)c1cc(Oc2ccc(NC(=O)Nc3ccc(Cl)c(C(F)(F)F)c3)cc2)ccn1 [SORAFENIB] | – | – | – | – | – | – | – | 34 | 5
